Assay [1] deals with Histone deacetylase 2 (Homo sapiens, UniProt Q92769).
Assay [2] deals with Histone deacetylase 3 (Homo sapiens, UniProt O15379).
The nature of assay [3]: Selectivity for HDAC10 over HDAC1.
The subject of assay [4] is BXPC-3. Nature of the assay: Cytotoxicity against human BxPC3 cells after 72 hrs by MTT assay. The format is functional, cell-based. Conditions: BXPC-3, 72 h. Background: Tetrazolium assays rely on reduction of a dye to a coloured formazan, in cell work by metabolically active cells.
The nature of assay [5]: Cytotoxicity against human Hup T3 cells after 72 hrs by MTT assay. The note with it: HuP-T3, 72 h. The format is functional, cell-based.
The subject of assay [6] is MIA PaCa-2. Nature of the assay: Cytotoxicity against human Mia Paca2 cells after 72 hrs by MTT assay. The format is functional, cell-based. Conditions: MIA PaCa-2, 72 h.
Assay [7] is described as follows: Cytotoxicity against human Panc 04.03 cells after 72 hrs by MTT assay. The note with it: Panc 04.03, 72 h. The format is functional, cell-based.
The nature of assay [8]: Cytotoxicity against human SU 86.86 cells after 72 hrs by MTT assay. It counts as functional, cell-based. Conditions: SU.86.86, 72 h.
Assay [9] deals with Plasmodium falciparum. The assay can be described thus: Antimalarial activity against Plasmodium falciparum D6 by hypoxanthine uptake. The format is functional, organism-based.
Assay [10] deals with Plasmodium falciparum. The assay can be described thus: Antimalarial activity against Plasmodium falciparum W2 by hypoxanthine uptake. The format is functional, organism-based.
The subject of assay [11] is Plasmodium falciparum. Nature of the assay: Antimalarial activity against Plasmodium falciparum TM90C2A by hypoxanthine uptake. The format is functional, organism-based.
Assay [12] addresses Histone deacetylase 1 (Homo sapiens, UniProt Q13547).
Assay [13] addresses T1, Histone deacetylase 8 (Homo sapiens, UniProt Q9BY41).
T1 sequence (Q9BY41 whole entry): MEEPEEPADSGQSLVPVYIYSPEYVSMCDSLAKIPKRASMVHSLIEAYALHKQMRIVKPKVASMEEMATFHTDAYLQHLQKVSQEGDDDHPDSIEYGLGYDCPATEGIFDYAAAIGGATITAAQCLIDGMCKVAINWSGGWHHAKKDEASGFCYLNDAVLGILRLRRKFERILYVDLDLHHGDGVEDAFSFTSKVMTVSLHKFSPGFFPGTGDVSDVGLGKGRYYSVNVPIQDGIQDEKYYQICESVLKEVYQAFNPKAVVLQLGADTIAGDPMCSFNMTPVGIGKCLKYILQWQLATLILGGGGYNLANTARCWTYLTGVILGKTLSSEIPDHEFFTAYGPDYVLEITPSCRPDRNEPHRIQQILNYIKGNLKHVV

The target in assay [14] is T2, Polyamine deacetylase HDAC10 (Homo sapiens, UniProt Q969S8).
T2 sequence (Q969S8 whole entry): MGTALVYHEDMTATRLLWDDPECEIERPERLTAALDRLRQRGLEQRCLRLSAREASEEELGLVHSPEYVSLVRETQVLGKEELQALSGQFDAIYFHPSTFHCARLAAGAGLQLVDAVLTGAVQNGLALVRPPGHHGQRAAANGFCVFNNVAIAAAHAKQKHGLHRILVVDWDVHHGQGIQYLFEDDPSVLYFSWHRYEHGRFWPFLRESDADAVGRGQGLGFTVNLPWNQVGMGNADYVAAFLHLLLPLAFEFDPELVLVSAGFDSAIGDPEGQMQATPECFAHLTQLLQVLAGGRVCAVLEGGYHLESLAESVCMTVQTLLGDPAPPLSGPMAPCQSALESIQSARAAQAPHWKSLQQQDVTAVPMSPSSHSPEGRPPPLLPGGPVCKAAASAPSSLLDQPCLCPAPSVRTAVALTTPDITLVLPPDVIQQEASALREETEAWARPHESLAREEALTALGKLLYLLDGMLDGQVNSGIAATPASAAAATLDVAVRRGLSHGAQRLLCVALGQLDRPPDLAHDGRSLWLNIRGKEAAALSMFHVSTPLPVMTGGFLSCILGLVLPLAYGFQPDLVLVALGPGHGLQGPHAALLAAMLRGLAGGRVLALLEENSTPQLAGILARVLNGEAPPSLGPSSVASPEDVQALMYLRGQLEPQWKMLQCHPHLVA

The target of assay [15] is T3, Protein deacetylase HDAC6 (Homo sapiens, UniProt Q9UBN7).
T3 sequence (Q9UBN7 whole entry): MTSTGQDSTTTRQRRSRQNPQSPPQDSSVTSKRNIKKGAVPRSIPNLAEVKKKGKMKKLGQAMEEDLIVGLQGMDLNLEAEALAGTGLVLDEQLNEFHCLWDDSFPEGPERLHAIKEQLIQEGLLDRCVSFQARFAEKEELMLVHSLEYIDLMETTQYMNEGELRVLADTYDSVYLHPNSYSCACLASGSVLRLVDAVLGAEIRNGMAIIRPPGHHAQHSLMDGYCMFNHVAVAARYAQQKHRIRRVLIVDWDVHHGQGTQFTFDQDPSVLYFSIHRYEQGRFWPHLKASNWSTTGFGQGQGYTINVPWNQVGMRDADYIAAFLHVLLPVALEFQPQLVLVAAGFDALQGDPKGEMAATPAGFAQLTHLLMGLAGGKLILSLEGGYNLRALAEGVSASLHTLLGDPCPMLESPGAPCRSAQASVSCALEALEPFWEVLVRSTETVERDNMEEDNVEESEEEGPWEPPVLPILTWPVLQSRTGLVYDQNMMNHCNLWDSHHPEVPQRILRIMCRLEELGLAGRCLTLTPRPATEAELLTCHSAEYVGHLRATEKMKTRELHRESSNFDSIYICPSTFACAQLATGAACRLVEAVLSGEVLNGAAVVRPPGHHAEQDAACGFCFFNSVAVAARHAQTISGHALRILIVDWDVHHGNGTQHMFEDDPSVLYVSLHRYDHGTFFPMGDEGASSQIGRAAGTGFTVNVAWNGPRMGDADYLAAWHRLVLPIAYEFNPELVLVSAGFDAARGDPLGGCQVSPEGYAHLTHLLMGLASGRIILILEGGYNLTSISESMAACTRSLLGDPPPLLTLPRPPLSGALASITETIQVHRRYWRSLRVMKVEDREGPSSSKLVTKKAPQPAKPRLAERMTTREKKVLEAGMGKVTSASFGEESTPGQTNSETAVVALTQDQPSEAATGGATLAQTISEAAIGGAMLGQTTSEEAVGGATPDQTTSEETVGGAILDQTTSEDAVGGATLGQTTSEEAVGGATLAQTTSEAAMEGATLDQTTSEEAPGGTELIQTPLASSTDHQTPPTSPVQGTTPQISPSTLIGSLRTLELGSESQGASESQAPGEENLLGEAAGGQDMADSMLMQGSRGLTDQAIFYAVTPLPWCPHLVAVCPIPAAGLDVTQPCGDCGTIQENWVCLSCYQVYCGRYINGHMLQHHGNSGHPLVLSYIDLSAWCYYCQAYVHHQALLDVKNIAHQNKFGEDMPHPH

The subject of assay [16] is Plasmodium falciparum. Nature of the assay: microbe, parasite or virus in culture. Conditions: TM91C235.
Description: Antimalarial activity against Plasmodium falciparum TM91C235 by hypoxanthine uptake

Results on ten compounds are retold here after ChEMBL document CHEMBL1150413, “A series of potent and selective, triazolylphenyl-based histone deacetylases inhibitors with activity against pancreatic cancer cells and Plasmodium falciparum” (J Med Chem, 2008).

pIC50: −log10 of the molar value. Some results are limits rather than exact numbers.

As a reminder, the pIC50 is −log10 of the IC50, conventionally taken in molar units.

Chain of Histone deacetylase 3 (O15379 whole entry): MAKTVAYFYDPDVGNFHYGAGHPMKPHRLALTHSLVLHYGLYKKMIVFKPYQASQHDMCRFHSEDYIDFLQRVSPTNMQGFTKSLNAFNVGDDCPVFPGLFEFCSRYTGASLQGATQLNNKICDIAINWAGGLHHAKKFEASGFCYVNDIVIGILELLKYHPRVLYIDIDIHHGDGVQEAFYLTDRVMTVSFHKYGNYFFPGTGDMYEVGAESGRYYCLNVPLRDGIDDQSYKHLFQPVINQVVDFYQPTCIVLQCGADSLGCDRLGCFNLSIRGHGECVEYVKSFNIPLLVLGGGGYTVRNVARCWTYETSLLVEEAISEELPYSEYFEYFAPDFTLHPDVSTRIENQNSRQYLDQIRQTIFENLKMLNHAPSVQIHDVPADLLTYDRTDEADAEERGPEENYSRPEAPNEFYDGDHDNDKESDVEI
Chain of Histone deacetylase 2 (Q92769 whole entry): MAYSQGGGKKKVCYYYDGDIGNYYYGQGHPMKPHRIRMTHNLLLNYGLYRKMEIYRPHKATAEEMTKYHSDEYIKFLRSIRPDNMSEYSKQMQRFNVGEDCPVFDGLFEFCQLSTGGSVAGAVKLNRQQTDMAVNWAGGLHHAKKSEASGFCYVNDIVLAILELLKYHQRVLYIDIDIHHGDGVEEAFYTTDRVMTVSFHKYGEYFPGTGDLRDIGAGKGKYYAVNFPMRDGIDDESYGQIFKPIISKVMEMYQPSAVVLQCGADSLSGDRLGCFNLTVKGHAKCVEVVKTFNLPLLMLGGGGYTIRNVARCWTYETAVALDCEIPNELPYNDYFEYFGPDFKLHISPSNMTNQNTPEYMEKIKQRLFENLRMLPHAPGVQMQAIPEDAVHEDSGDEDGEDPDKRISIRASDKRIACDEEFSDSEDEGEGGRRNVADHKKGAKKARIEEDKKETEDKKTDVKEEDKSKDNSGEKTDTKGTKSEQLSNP
Chain of Histone deacetylase 1 (Q13547 whole entry): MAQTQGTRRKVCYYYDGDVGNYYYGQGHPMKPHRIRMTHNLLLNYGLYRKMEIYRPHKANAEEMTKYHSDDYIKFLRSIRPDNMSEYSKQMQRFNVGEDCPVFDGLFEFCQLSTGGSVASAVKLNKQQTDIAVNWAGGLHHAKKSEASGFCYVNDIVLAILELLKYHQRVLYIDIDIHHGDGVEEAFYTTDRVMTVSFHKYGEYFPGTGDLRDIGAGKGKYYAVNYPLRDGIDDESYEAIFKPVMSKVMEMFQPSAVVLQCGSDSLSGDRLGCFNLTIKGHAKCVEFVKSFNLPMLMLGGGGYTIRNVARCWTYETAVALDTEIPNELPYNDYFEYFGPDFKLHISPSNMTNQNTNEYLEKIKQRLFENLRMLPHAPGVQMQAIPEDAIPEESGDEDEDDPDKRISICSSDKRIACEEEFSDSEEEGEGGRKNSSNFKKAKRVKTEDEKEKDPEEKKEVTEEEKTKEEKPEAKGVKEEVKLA

`O=C(CCCCCCC(=O)Nc1cccc(-c2cn(Cc3ccccc3)nn2)c1)NO`: the negative-log IC50 (pIC50) is 7.37 in assay [1]; 8.10 in assay [2]; 5.52 in assay [4]; 6.00 in [5]; above 6.30 in assay [6]; 5.70 in [7]. The pIC50 in assay [8] is 5.70; in assay [9] it was 6.85; in [10], 6.80; in assay [11], 6.72; in assay [12], 7.84; in assay [13], 5.70. For the same compound, the values for the pIC50 in assay [14], in assay [15] and in assay [16] were 7.73, 8.51 and 6.66, respectively. For the same compound, in assay [3], the Ratio IC50 is 0.8.

Regarding `O=C(CCCCCCC(=O)Nc1cccc(-c2cnnn2-c2ccccc2)c1)NO`, the pIC50 in assay [1] is 6.78; in assay [2], 8.11; in assay [4], 5.00; in [5], 5.10; in assay [6], 5.52; in assay [7], 5.70. The negative logarithm of the IC50 (pIC50) was 5.40 in [8]; 6.49 in assay [9]; 6.14 in assay [10]; 6.48 in assay [11]; 7.48 in [12]; 6.03 in [13]. The negative logarithm of the IC50 (pIC50) is 7.61 in assay [14], 8.12 in assay [15] and 6.30 in [16]. In addition, the Ratio IC50 in assay [3] is 1.4.

`O=C(CCCCCCC(=O)Nc1cccc(-c2cnnn2Cc2ccccc2)c1)NO`: the negative logarithm of the IC50 (pIC50) in assay [1] was 6.95; in assay [2], 8.35; in [4] it was 4.92; in [5] it was 5.70; in assay [6], 6.00; in assay [7], 5.40. Also, the negative logarithm of the IC50 (pIC50) is 5.15 in assay [8]; 6.68 in assay [9]; 6.22 in [10]; 6.82 in assay [11]; 7.73 in assay [12]; 6.36 in [13]. For the same compound, the pIC50 in assay [14] was 7.72; in [15], 8.48; in assay [16] it was 6.43. Besides, the Ratio IC50 in assay [3] amounted to 1.

`O=C(CCCCCCC(=O)Nc1ccccc1)NO` [VORINOSTAT] showed a negative-log IC50 (pIC50) in assay [5] of 6.10.

Consider `O=C(CCCCCCC(=O)Nc1cccc(-c2cnnn2CC(O)c2cccc(Br)c2)c1)NO` (stereo not given), for which the pIC50 in assay [1] was 6.94; in [2], 8.38; in assay [4], 4.37; in assay [5], 4.38; in assay [6], 4.96; in assay [7] it was 4.60. Further, the pIC50 in assay [8] was 4.64; in assay [9], 6.74; in assay [10], 6.42; in assay [11], 6.92; in [12] it was 7.63; in assay [13], 6.39. Besides, the results for the pIC50 in assay [14], in assay [15] and in [16] were 7.80, 8.55 and 6.41, respectively. Also, in [3], the Ratio IC50 was 1.5.

As to `O=C(CCCCCCC(=O)Nc1ccc(-c2cn(CC(O)c3cccc(Br)c3)nn2)cc1)NO` (stereo not given), the pIC50 in [1] was 6.84; in assay [2], 7.60; in assay [4], 4.74; in [5], 4.92; in [6], 6.22; in assay [7] it was 5.00. For the same compound, the pIC50 in assay [8] was 4.92; in assay [9], 7.10; in assay [10] it was 6.41; in assay [11], 6.72; in assay [12], 7.16; in [13], 5.50. Further, the pIC50 is 7.06 in assay [14], 8.36 in assay [15] and 6.96 in assay [16]. Further, in assay [3], the Ratio IC50 turned out to be 0.8.

Consider `O[C@@H](c1cc(C(F)(F)F)nc2c(C(F)(F)F)cccc12)[C@H]1CCCCN1` [MEFLOQUINE], for which the pIC50 in assay [9] is 7.96.

With `O=C(CCCCCCC(=O)Nc1ccc(-c2cnnn2CC(O)c2cccc(Br)c2)cc1)NO` (stereo not given), the negative-log IC50 (pIC50) is 6.67 in assay [1]; 7.82 in [2]; 4.60 in assay [4]; 4.34 in [5]; 4.43 in [6]; 4.36 in [7]. Besides, the pIC50 in [8] is 4.38; in [9], 6.64; in assay [10], below 6.02; in assay [11], 6.64; in assay [12] it was 7.16; in assay [13], 6.13. Also, the pIC50 was 7.13 in assay [14], 8.38 in [15] and 6.41 in assay [16]. The Ratio IC50 in assay [3] worked out at 0.9.

For `O=C(CCCCCCC(=O)Nc1ccc(-c2cn(Cc3ccccc3)nn2)cc1)NO`, the pIC50 is 6.17 in assay [1]; 5.05 in assay [4]; 5.30 in assay [5]; above 6.00 in [6]; 5.70 in assay [7]; 5.00 in assay [8]. Moreover, the pIC50 is 6.68 in assay [9]; 6.28 in assay [10]; 6.80 in assay [11]; 6.95 in [12]; 5.40 in [13]; 6.73 in assay [14]. Moreover, the pIC50 in assay [15] was 8.32; in assay [16], 6.52. Also, the Ratio IC50 in [3] is 0.6.

In the case of `O=C(CCCCCCC(=O)Nc1ccc(-c2cn(Cc3ccc(F)cc3)nn2)cc1)NO`, the pIC50 in [1] is 6.53; in assay [2] it was 7.86; in [4], 4.66; in [5] it was 5.40; in [6] it was above 6.30; in [7], 5.52. Moreover, the negative-log IC50 (pIC50) in assay [8] was 4.96; in [12] it was 7.01; in assay [13] it was 6.10; in assay [14], 6.95; in assay [15], 8.72. Further, the Ratio IC50 in [3] worked out at 0.9.
